Series [1] can be described thus: Particle size of the raw material by Malvern laser particle size analyzer (Mastersizer 2000). As to conditions: for Particle size d (0.5) of the raw material / Particle size d (0.9) of the raw material: in µm (unit assumed). In kind it is physicochemical. As for the experimental part:
2-((2-Fluoro-4-iodophenyl)amino)-1-methyl-4-((6-methylpyridin-3-yl)oxy)-6-oxo-1,6-dihydropyridine-3-carboxamide p-toluenesulfonate (hereinafter referred to as compound A) was screened by an 80 mesh sieve, and micronized by a Mcone jet mill (micronizing pressure: 4 bar, sample introduction pressure: 6 bar), respectively. The particle size was measured directly with a Malvern laser particle size analyzer (Mastersizer 2000).

A further series in a line: Solubility. Format: physicochemical. As to conditions: compound A and its salts.
Setting [2] is: raw material micronized by a jet mill (4 bar).
Where [3] appears, read: raw material screened by an 80 mesh sieve.

On to `Cc1ccc(Oc2cc(=O)n(C)c(Nc3ccc(I)cc3F)c2C(N)=O)cn1.Cc1ccc(S(=O)(=O)O)cc1` [compound A, 2-((2-fluoro-4-iodophenyl)amino)-1-methyl-4-((6-methylpyridin-3-yl)oxy)-6-oxo-1,6-di hydropyridine-3-carboxamide p-toluenesulfonate], for which the “particle size of the raw material” value in series [1] (raw material micronized by a jet mill) is listed as “less than 10 μm”. In addition, in series [1] (setting [2]), the “Particle size d (0.5) of the raw material” value is listed as 2.587 and the “Particle size d (0.9) of the raw material” value stood at 5.494. Further, in series [1] (setting [3]), the “Particle size d (0.5) of the raw material” value came out at 4.940 and the “Particle size d (0.9) of the raw material” value came to 14.148. For the same compound, the solubility result in the series “Solubility” is reported as “low”.

Values taken from US10709699B2, “Pyridone derivative pharmaceutical composition and preparation method thereof” (Jiangsu Hengrui Medicine Co., Ltd., priority 2016, dated 2020).
